# Data taken from patent publication US20250122502A1, “Bifunctional Molecules and Methods of Using Thereof” (FLAGSHIP PIONEERING, INC., priority 2021, published 2025).
# Test system: MYC expression in HEK293T cells
# Experiment: MYC expression by qPCR after RNAiMax transfection
# Format: cell-based, human
# Settings: 100 nM, 24 hours
# Description: HEK293T cells were seeded at 30 k cells/well in a 96 well tissue culture vessel day before transfection. The next day cells were transfected with 400, 200, 100, 50 nM of PVT1 ASO1-JQ1 with Lipofectamine RNAiMax (ThermoFisher Cat #13778150). […] Transfected cells were allowed to recover and were harvested after 24 hours. MYC expression was measured by RNA level using qPCR analysis after transfection with each of the bi-functional molecule or control molecules. Cell samples for qPCR analysis were prepared by Cells to Ct 1 Step TaqMan Kit (ThermoFisher A25602) following manufacturer's recommendations. qPCR assays were performed using Cells to Ct qPCR master mix, gene specific TaqMan probe (ThermoFisher), and Cells to Ct cell lysate. Relative levels of MYC were normalized to β-actin as a stably expressed control. MYC TaqMan probe: […] ACTB TaqMan probe: […] During qPCR amplification, FAM fluorescence intensity for each target gene was recorded by QuantStudio7 qPCR instrument (ThermoFisher Scientific) as a measurement of the amount of double-stranded DNA produced during each PCR cycle. Ct values for each gene in each sample were computed by the instrument software based on the amplification curves, and used to determine relative expression values for target and β-actin in each sample.
row,Substance,MYC expression change (in words)
1,"PVT1-Scr1: partially scrambled PVT1 ASO1 (SEQ ID NO: 63) conjugated to JQ1 (antisense TGAAGTGGAATTCCAGTTG; listed as DNA, chemistry not fully specified)",less impact
2,"PVT1-Scr4: partially scrambled PVT1 ASO1 (SEQ ID NO: 66) conjugated to JQ1 (antisense GTAAGTGGAATTCCATTGG; listed as DNA, chemistry not fully specified)",less impact
